Reference: patent US20190330529A1, “USE AND COMPOSITION OF BUFFER FORMULATION WITH MULTIPLE PH VALUES AND UREASE ACTIVITY INHIBITOR” (ECO-GEO BIO-TECHNOLOGY COMPANY LIMITED, priority 2018, published 2019)

Experiments:
[1] = target: T1, urease (U7752, Sigma-Aldrich) (Canavalia ensiformis, UniProt P07374); assay: Inhibition of the activity of the urease in phosphate buffer solution (Berthelot, absorbance 625 nm); format: biochemical
T1 construct: purchased Sigma-Aldrich U7752
Description: 1. Experiment of the Inhibition of the Activity of the Urease (in Phosphate Buffer Solution, pH 5.0)
1.1 Control group: 20 μL of the buffer solution and 25 μL of 50 ppm urease (U7752, Sigma-Aldrich) were added and mixed in wells of a 96-well plate. After the mixture reacted at 37° C. for 5 minutes, 40 μL of 20 mM urea solution was added into the mixture. After the mixture reacted at 37° C. for 10 minutes, 55 μL of Berthelot reagent A (prepared by mixing 5 g of phenol and 25 mg of sodium nitroprusside and diluting the mixture to 500 mL with purified water) and 60 μL of Berthelot reagent B (prepared by mixing 2.5 g of sodium hydroxide and 4.2 mL of sodium hypochlorite and diluting the mixture to 500 mL with purified water) were added into each well. The mixture was held in the dark at 37° C. for 30 minutes, and the absorbance was measured at 625 nm wavelength by an enzyme-linked immuno-sorbent assay (ELISA) reader. Each sample was measured at least in triplicate.
(§1) 1.2 Ascorbic acid groups: 10 μL of the buffer solution, 10 μL of ascorbic acid solution and 25 μL of 50 ppm urease were added and mixed in wells of a 96-well plate. After the mixture reacted at 37° C. for 5 minutes, 40 μL of 20 mM urea solution was added into the mixture to make the final concentrations of the ascorbic acid as 120 ppm, 240 ppm and 480 ppm, respectively. After the mixture reacted at 37° C. for 10 minutes, 55 μL of Berthelot reagent A and 60 μL of Berthelot reagent B were added into each well. The mixture was held in the dark at 37° C. for 30 minutes, and the absorbance was measured at 625 nm wavelength by the ELISA reader. Each sample was measured at least in triplicate. The inhibition % of the activity of the urease=100−((the absorbance of the sample/the absorbance of the control group)×100).
2. Experiment of the Inhibition of the Activity of the Urease (in Phosphate Buffer Solution, pH 6.0)
(§2) 2.1 Control group: 20 μL of the buffer solution and 25 μL of 50 ppm urease were added and mixed in wells of a 96-well plate. After the mixture reacted at 37° C. for 5 minutes, 40 μL of 20 mM urea solution was added into the mixture. After the mixture reacted at 37° C. for 10 minutes, 55 μL of Berthelot reagent A and 60 μL of Berthelot reagent B were added into each well. The mixture was held in the dark at 37° C. for 30 minutes, and the absorbance was measured at 625 nm wavelength by the ELISA reader. Each sample was measured at least in triplicate.
as §1, with “2.2” for “1.2”
3. Experiment of the Inhibition of the Activity of the Urease (in Phosphate Buffer Solution, pH 6.8)
as §2, with “3.1” for “2.1”, “triplicate. […]” for “triplicate.”

[2] = target: T1, urease (U7752, Sigma-Aldrich); assay: Inhibition of the activity of the urease in citric acid salt buffer solution (Berthelot, absorbance 625 nm); format: biochemical
Description: as §2, with “7.1 Control group:” for “2.1”
as §1, with “7.2” for “1.2”
as §2, with “8.1 Control group:” for “2.1”
as §1, with “8.2” for “1.2”
as §2, with “9.1 Control group:” for “2.1”
as §1, with “9.2” for “1.2”, “Each sample was measured at least in triplicate. The inhibition % of the activity of the urease=100−((the absorbance of the sample/the absorbance of the control group)×100).” left out

[3] = pH 5, read-out: inhibition % of the activity of the urease
[4] = pH 6, read-out: inhibition % of the activity of the urease
[5] = pH 6.8, read-out: inhibition % of the activity of the urease
[6] = pH 7, read-out: inhibition % of the activity of the urease
[7] = pH 7.3, read-out: inhibition % of the activity of the urease
[8] = pH 8, read-out: inhibition % of the activity of the urease

T1 sequence (P07374 whole entry, looked up): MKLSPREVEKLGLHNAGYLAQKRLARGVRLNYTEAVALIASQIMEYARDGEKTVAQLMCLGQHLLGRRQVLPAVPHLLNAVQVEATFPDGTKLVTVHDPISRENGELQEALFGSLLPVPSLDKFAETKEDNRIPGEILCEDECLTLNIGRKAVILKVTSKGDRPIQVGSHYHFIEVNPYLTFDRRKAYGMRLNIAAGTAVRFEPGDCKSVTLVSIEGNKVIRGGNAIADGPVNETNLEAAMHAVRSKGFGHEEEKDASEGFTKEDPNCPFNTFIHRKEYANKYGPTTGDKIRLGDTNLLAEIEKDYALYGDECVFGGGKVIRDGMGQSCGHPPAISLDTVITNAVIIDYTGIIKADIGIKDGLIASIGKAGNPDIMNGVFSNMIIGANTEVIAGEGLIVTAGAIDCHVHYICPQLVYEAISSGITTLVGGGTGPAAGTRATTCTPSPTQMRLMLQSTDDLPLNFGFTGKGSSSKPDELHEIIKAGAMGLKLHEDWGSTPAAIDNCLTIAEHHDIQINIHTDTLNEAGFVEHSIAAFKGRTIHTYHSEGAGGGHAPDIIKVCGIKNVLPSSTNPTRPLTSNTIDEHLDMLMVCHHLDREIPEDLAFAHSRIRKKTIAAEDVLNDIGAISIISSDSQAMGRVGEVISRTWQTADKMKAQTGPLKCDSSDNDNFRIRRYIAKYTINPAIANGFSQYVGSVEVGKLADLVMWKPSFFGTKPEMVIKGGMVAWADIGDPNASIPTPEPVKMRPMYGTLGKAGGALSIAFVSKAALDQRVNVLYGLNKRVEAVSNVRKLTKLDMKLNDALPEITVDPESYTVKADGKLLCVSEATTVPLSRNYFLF

O=C1O[C@H]([C@@H](O)CO)C(O)=C1O [ascorbic acid]
inhibitory effect on the urease hydrolysis (in words) ([1]; environment with pH 5-8, optical density versus control group): has the inhibitory effect on the urease hydrolysis
inhibitory effect on the urease hydrolysis ([1]; environment with pH 6.8-7.3, summary statement, buffer and concentration not stated): over 90%
inhibition at 120 ppm [1, 3]: 25.7%
inhibition at 240 ppm [1, 3]: 33.1%
inhibition at 480 ppm [1, 3]: 40.5%
inhibition at 120 ppm [1, 4]: 26.7%
inhibition at 240 ppm [1, 4]: 49%
inhibition at 480 ppm [1, 4]: 52.9%
inhibition at 480 ppm ([1]; pH 6, read-out: inhibition of the urea hydrolysis): > 50%
inhibition at 120 ppm [1, 5]: 2%
inhibition at 240 ppm [1, 5]: 37.3%
inhibition at 480 ppm [1, 5]: 96.5%
inhibition at 480 ppm ([1]; pH 6.8, read-out: inhibition of the urea hydrolysis): > 93%
inhibition at 120 ppm [1, 6]: 16.1%
inhibition at 240 ppm [1, 6]: 59.4%
inhibition at 480 ppm [1, 6]: 97.2%
inhibition at 120 ppm [1, 7]: 11.3%
inhibition at 240 ppm [1, 7]: 34.6%
inhibition at 480 ppm [1, 7]: 93.6%
inhibition at 120 ppm [1, 8]: 8.1%
inhibition at 240 ppm [1, 8]: 33.3%
inhibition at 480 ppm [1, 8]: 77.7%
inhibition at 120 ppm ([2]; pH 6.8, read-out: inhibition % of the activity of the urease, 120 ppm ascorbic acid, citrate buffer solution, pH 6.8): -6.8%
inhibition at 240 ppm ([2]; pH 6.8, read-out: inhibition % of the activity of the urease, 240 ppm ascorbic acid, citrate buffer solution, pH 6.8): 66%
inhibition at 480 ppm ([2]; pH 6.8, read-out: inhibition % of the activity of the urease, 480 ppm ascorbic acid, citrate buffer solution, pH 6.8): 93.5%
inhibition at 480 ppm ([2]; pH 6.8, read-out: inhibition of the urea hydrolysis, 480 ppm ascorbic acid, citrate buffer solution, pH 6.8-7.0): > 90%
inhibition at 480 ppm ([2]; pH 6.8, read-out: inhibition of the urea hydrolysis, 480 ppm ascorbic acid, citrate buffer solution, pH 6.8-7.3): > 50%
inhibition at 120 ppm ([2]; pH 7, read-out: inhibition % of the activity of the urease, 120 ppm ascorbic acid, citrate buffer solution, pH 7.0): -25.2%
inhibition at 240 ppm ([2]; pH 7, read-out: inhibition % of the activity of the urease, 240 ppm ascorbic acid, citrate buffer solution, pH 7.0): 32.6%
inhibition at 480 ppm ([2]; pH 7, read-out: inhibition % of the activity of the urease, 480 ppm ascorbic acid, citrate buffer solution, pH 7.0): 93.6%
inhibition at 120 ppm ([2]; pH 7.3, read-out: inhibition % of the activity of the urease, 120 ppm ascorbic acid, citrate buffer solution, pH 7.3): -19.7%
inhibition at 240 ppm ([2]; pH 7.3, read-out: inhibition % of the activity of the urease, 240 ppm ascorbic acid, citrate buffer solution, pH 7.3): 27.1%
inhibition at 480 ppm ([2]; pH 7.3, read-out: inhibition % of the activity of the urease, 480 ppm ascorbic acid, citrate buffer solution, pH 7.3): 75.3%
